# Patent US20240247080A1, “GLP1/GIP/NPY2 RECEPTOR TRIPLE AGONISTS” (Boehringer Ingelheim International GmbH, priority 2022, published 2024)
# Like-named read-outs stand apart in the source and are kept apart here. Starred links: 1 amine or outer side, 2 acyl side, 3 side chain; linkers in the order of their positions; H or OH if unused. Non-standard residues stand in square brackets, D forms with d. Groups on a side chain read outwards from the residue. *: point of attachment. C20 diacid = O=C(O)CCCCCCCCCCCCCCCCCCC(=O)*; C18 diacid = O=C(O)CCCCCCCCCCCCCCCCC(=O)*; γGlu = O=C(O)[C@H](CCC(=O)[*:2])N[*:1]; AEEA = NCCOCCOCC(=O)O; Aib = CC(C)(N)C(=O)O
# What was measured:
# Assay type in all cases: cell-based
# Details in all cases: CreLuc reporter gene assay
# hNPY2R = target: T1, hNPY2R (Homo sapiens, UniProt P49146); experiment: hNPY2R CreLuc reporter gene assay in 0.5% and 100% plasma
# T1 construct: expressed in transfected cells; host or cells: HEK-293 cells carrying a CRE-luciferase reporter gene
# T1 sequence (P49146 1-381): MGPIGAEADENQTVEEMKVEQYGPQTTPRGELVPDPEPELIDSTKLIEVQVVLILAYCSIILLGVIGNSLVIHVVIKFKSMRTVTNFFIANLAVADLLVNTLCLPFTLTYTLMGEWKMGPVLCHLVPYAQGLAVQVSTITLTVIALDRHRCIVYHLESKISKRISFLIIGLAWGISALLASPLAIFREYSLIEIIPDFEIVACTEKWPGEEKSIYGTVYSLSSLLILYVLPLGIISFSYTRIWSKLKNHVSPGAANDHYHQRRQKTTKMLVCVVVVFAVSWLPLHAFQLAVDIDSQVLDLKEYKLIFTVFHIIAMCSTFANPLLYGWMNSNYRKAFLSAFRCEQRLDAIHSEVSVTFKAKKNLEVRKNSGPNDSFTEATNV
# How it was run: (§1)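 Agonist EC50s came from 8-concentration curves over four decades, fitted by non-linear variable-slope regression of CRE-driven luciferase luminescence. Cells were exposed 4 h at 37 °C, in buffer with 0.5% human plasma or in 100% plasma; GIPR was expressed in CHO cells, GLP-1R and NPY2R in HEK cells.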
# hGIPR = target: T2, hGIPR (Homo sapiens, UniProt P48546); experiment: hGIPR CreLuc reporter gene assay in 0.5% and 100% plasma
# T2 construct: expressed in transfected cells; host or cells: CHO cells carrying a CRE-luciferase reporter gene
# T2 sequence (P48546 22-466): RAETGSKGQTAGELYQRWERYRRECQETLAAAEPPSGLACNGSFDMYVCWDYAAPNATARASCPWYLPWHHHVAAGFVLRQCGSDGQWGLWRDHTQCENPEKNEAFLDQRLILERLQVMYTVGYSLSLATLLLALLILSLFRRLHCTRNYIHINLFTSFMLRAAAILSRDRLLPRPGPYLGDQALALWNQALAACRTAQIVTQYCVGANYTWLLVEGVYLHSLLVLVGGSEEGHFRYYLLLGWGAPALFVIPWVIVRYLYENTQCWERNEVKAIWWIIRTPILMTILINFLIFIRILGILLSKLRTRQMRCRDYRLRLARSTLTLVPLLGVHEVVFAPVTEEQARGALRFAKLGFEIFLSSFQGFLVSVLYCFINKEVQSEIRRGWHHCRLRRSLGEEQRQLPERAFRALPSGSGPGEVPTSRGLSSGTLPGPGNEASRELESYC
# How it was run: as §1
# hGLP1R = target: T3, hGLP1R (Homo sapiens, UniProt P43220); experiment: hGLP1R CreLuc reporter gene assay in 0.5% and 100% plasma
# T3 construct: expressed in transfected cells; host or cells: HEK-293 cells carrying a CRE-luciferase reporter gene
# How it was run: as §1
# [1] = 100% human plasma, read-out: hNPY2R 100% hP
# [2] = 0.5% human plasma, read-out: hGIPR 0.5% hP
# [3] = 100% human plasma, read-out: hGIPR 100% hP
# [4] = 0.5% human plasma, read-out: hGLP1R 0.5% hP
# [5] = 100% human plasma, read-out: hGLP1R 100% hP
# [6] = 0.5% human plasma, read-out: hNPY2R 0.5% hP
# T3 sequence (P43220 24-463): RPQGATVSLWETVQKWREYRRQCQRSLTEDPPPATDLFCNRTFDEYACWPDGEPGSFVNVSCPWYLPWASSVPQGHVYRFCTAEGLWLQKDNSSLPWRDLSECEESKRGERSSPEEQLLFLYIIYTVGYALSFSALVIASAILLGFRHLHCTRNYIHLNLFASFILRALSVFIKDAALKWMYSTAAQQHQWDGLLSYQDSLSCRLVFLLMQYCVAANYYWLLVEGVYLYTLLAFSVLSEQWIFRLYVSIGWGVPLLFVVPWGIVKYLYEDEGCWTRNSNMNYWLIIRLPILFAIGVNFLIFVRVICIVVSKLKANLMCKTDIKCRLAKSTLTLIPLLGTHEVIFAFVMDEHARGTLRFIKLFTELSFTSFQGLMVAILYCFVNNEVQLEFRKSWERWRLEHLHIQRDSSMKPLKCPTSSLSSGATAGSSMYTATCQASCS
Substance,EC50 (hNPY2R; [1]) [nM],EC50 (hGIPR; [2]) [nM],EC50 (hGIPR; [3]) [nM],EC50 (hGLP1R; [4]) [nM],EC50 (hGLP1R; [5]) [nM],EC50 (hNPY2R; [6]) [nM]
"H-Y[Aib]EGTFTSDYSI[Aib]LEKQAQ[Aib]AFVQWLIK([AEEA-AEEA-γGlu-γGlu-γGlu-γGlu-C18 diacid])GGPSEGASLRHYYNWLTRQRY-NH2 [Compound 270, Y-Aib-E-G-T-F-T-S-D-Y-S-I-Aib-L-E-K-Q-A-Q-Aib-A-F-V-Q-W-L-I-K(1,3)-GGPSEGASLRHYYNWLTRQRY-NH2.C18DA-gGlu-gGlu-gGlu-gGlu-OEG-OEG(1,2)]",21.1,0.12,0.71,0.07,1.69,
"H-Y[Aib]EGTFTSDYSI[Aib]LEKQAQ[Aib]AFVQWLIK([AEEA-AEEA-γGlu-γGlu-γGlu-γGlu-C18 diacid])GGPSEPASLRHYYNWLTRQRY-NH2 [Compound 173, Y-Aib-E-G-T-F-T-S-D-Y-S-I-Aib-L-E-K-Q-A-Q-Aib-A-F-V-Q-W-L-I-K(1,3)-GGPSEPASLRHYYNWLTRQRY-NH2.C18DA-gGlu-gGlu-gGlu-gGlu-OEG-OEG(1,2)]",24.9,0.27,0.94,0.11,3.07,12.4
"H-Y[Aib]EGTFTSDYSI[Aib]LEKQAQ[Aib]AFVQWLIK([AEEA-AEEA-γGlu-γGlu-γGlu-γGlu-C20 diacid])GGPEEGASLRHYYNWLTRQRY-NH2 [Compound 193, Y-Aib-E-G-T-F-T-S-D-Y-S-I-Aib-L-E-K-Q-A-Q-Aib-A-F-V-Q-W-L-I-K(1,3)-GGPEEGASLRHYYNWLTRQRY-NH2.C20DA-gGlu-gGlu-gGlu-gGlu-OEG-OEG(1,2)]",,0.5,,0.36,,13.6
"H-Y[Aib]EGTFTSDYSI[Aib]LEKQAQ[Aib]AFVQWLIK([AEEA-AEEA-γGlu-γGlu-γGlu-γGlu-γGlu-C18 diacid])GGPESGASLRHYYNWLTRQRY-NH2 [Compound 55, Y-Aib-E-G-T-F-T-S-D-Y-S-I-Aib-L-E-K-Q-A-Q-Aib-A-F-V-Q-W-L-I-K(1,3)-GGPESGASLRHYYNWLTRQRY-NH2.C18DA-gGlu-gGlu-glu-gGlu-gGlu-OEG-OEG(1,2)]",53.4,0.12,,0.09,4.17,
"H-Y[Aib]EGTFTSDYSI[Aib]LEKQAQ[Aib]AFVQWLIK([AEEA-AEEA-γGlu-γGlu-γGlu-γGlu-γGlu-C18 diacid])GGPSEGASLRHYYNWLTRQRY-NH2 [Compound 246, Y-Aib-E-G-T-F-T-S-D-Y-S-I-Aib-L-E-K-Q-A-Q-Aib-A-F-V-Q-W-L-I-K(1,3)-GGPSEGASLRHYYNWLTRQRY-NH2.C18DA-gGlu-gGlu-gGlu-gGlu-gGlu-OEG-OEG(1,2)]",28.2,0.16,0.95,0.11,,12.8
"H-Y[Aib]EGTFTSDYSI[Aib]LEKQAQ[Aib]AFVQWLIK([AEEA-AEEA-γGlu-γGlu-γGlu-γGlu-γGlu-C18 diacid])GGPSEPASLRHYYNWLTRQRY-NH2 [Compound 142, Y-Aib-E-G-T-F-T-S-D-Y-S-I-Aib-L-E-K-Q-A-Q-Aib-A-F-V-Q-W-L-I-K(1,3)-GGPSEPASLRHYYNWLTRQRY-NH2.C18DA-gGlu-gGlu-gGlu-gGlu-gGlu-OEG-OEG(1,2)]",28.2,0.28,1.15,0.12,,13
"H-Y[Aib]EGTFTSDYSI[Aib]LEKQAQ[Aib]AFVQWLIK([AEEA-AEEA-γGlu-γGlu-γGlu-γGlu-γGlu-C20 diacid])GGPESGASLRHYYNWLTRQRY-NH2 [Compound 32, Y-Aib-E-G-T-F-T-S-D-Y-S-I-Aib-L-E-K-Q-A-Q-Aib-A-F-V-Q-W-L-I-K(1,3)-GGPESGASLRHYYNWLTRQRY-NH2.C20DA-gGlu-gGlu-gGlu-gGlu-gGlu-OEG-OEG(1,2)]",49.3,0.16,1.15,0.07,,12.2
"H-Y[Aib]EGTFTSDYSI[Aib]LEKQAQ[Aib]AFVQWLIK([AEEA-AEEA-γGlu-γGlu-γGlu-γGlu-γGlu-C20 diacid])GGPSEPASLRHYYNWLTRQRY-NH2 [Compound 111, Y-Aib-E-G-T-F-T-S-D-Y-S-I-Aib-L-E-K-Q-A-Q-Aib-A-F-V-Q-W-L-I-K(1,3)-GGPSEPASLRHYYNWLTRQRY-NH2.C20DA-gGlu-gGlu-gGlu-gGlu-gGlu-OEG-OEG(1,2)]",36.8,0.55,,0.12,,13.4
"H-Y[Aib]EGTFTSDYSI[Aib]LEKQAQ[Aib]AFVQWLIK([AEEA-AEEA-γGlu-γGlu-γGlu-γGlu-γGlu-C20 diacid])GGPSSGASLRHYYNWLTRQRY-NH2 [Compound 112, Y-Aib-E-G-T-F-T-S-D-Y-S-I-Aib-L-E-K-Q-A-Q-Aib-A-F-V-Q-W-L-I-K(1,3)-GGPSSGASLRHYYNWLTRQRY-NH2.C20DA-gGlu-gGlu-gGlu-gGlu-gGlu-OEG-OEG(1,2)]",27.6,0.19,0.83,0.06,1.7,
"H-Y[Aib]EGTFTSDYSI[Aib]LEKQAQ[Aib]AFVQWLIK([Glu-Glu-Glu-Glu-C18 diacid])GGPSEGASLRHYYNWLTRQRY-NH2 [Compound 281, Y-Aib-E-G-T-F-T-S-D-Y-S-I-Aib-L-E-K-Q-A-Q-Aib-A-F-V-Q-W-L-I-K(1,3)-GGPSEGASLRHYYNWLTRQRY-NH2.C18DA-E-E-E-E(1,2)]",,0.28,0.69,0.07,1.78,23
"H-Y[Aib]EGTFTSDYSI[Aib]LEKQAQ[Aib]AFVQWLIK([γGlu-γGlu-γGlu-γGlu-γGlu-C18 diacid])GGPESGASLRHYYNWLTRQRY-NH2 [Compound 53, Y-Aib-E-G-T-F-T-S-D-Y-S-I-Aib-L-E-K-Q-A-Q-Aib-A-F-V-Q-W-L-I-K(1,3)-GGPESGASLRHYYNWLTRQRY-NH2.C18DA-gGlu-gGlu-gGlu-gGlu-gGlu(1,2)]",50.6,0.13,1.38,0.09,,13.2
"H-Y[Aib]EGTFTSDYSI[Aib]LEKQAQ[Aib]AFVQWLIK([γGlu-γGlu-γGlu-γGlu-γGlu-C18 diacid])GGPESPASLRHYYNWLTRQRY-NH2 [Compound 12, Y-Aib-E-G-T-F-T-S-D-Y-S-I-Aib-L-E-K-Q-A-Q-Aib-A-F-V-Q-W-L-I-K(1,3)-GGPESPASLRHYYNWLTRQRY-NH2.C18DA-gGlu-gGlu-gGlu-gGlu-gGlu(1,2)]",45.8,0.14,,0.11,4.76,11.9
"H-Y[Aib]EGTFTSDYSI[Aib]LEKQAQ[Aib]AFVQWLIK([γGlu-γGlu-γGlu-γGlu-γGlu-C18 diacid])GGPSEGASLRHYYNWLTRQRY-NH2 [Compound 250, Y-Aib-E-G-T-F-T-S-D-Y-S-I-Aib-L-E-K-Q-A-Q-Aib-A-F-V-Q-W-L-I-K(1,3)-GGPSEGASLRHYYNWLTRQRY-NH2.C18DA-gGlu-gGlu-gGlu-gGlu-gGlu(1,2)]",,0.2,1.25,0.08,,12.2
"H-Y[Aib]EGTFTSDYSI[Aib]LEKQAQ[Aib]AFVQWLIK([γGlu-γGlu-γGlu-γGlu-γGlu-C20 diacid])GGPESPASLRHYYNWLTRQRY-NH2 [Compound 11, Y-Aib-E-G-T-F-T-S-D-Y-S-I-Aib-L-E-K-Q-A-Q-Aib-A-F-V-Q-W-L-I-K(1,3)-GGPESPASLRHYYNWLTRQRY-NH2.C20DA-gGlu-gGlu-gGlu-gGlu-gGlu(1,2)]",,0.17,,0.11,,10.3
"H-Y[Aib]EGTFTSDYSI[Aib]LEKQAQ[Aib]AFVQWLIK([γGlu-γGlu-γGlu-γGlu-γGlu-γGlu-C18 diacid])GGPSEGASLRHYYNWLTRQRY-NH2 [Compound 252, Y-Aib-E-G-T-F-T-S-D-Y-S-I-Aib-L-E-K-Q-A-Q-Aib-A-F-V-Q-W-L-I-K(1,3)-GGPSEGASLRHYYNWLTRQRY-NH2.C18DA-gGlu-gGlu-gGlu-gGlu-gGlu-gGlu(1,2)]",33.5,0.29,1.25,0.1,2.59,
